In patent US20240139125A1 (INDUSTRIAL COOPERATION FOUNDATION JEONBUK NATIONAL …, priority 2020, published 2024):

Columns and labels:
[1] = Cell viability for BIA and analogues, HT1080 cell line; format: cell-based; details: human, HT1080 fibrosarcoma cells; for viability at 5 µM: HT1080, 5 uM; for viability at 10 µM: HT1080, 10 uM
Protocol: HT1080 MDA-MB-231, SKBR3 and MCF7 cell lines were cultured in a 37° C., 5% CO2 incubator in a medium with 10% Fetal Bovine Serum, 1% penicillin and streptomycin (100 U) added to DMEM.
(§1) The compound prepared in Example 15 was treated with HT1080 fibrosarcoma cell line at 5 μM and 10 μM and cell viability was measured. In addition, the compound prepared in Example 15 on the DU145 prostate cancer cell line was treated with 10 μM, 20 μM, and 30 μM and cell viability was measured (see Table 2, Table 3).

[2] = Cell viability for BIA and analogues, DU145 cell line; format: cell-based; details: human; for viability at 10 µM: DU145, 10 uM; for viability at 20 µM: DU145, 20 uM; for viability: DU145, 50 rpm
Protocol: as §1

BI-1 (TMBIM6) = assay: TMBIM6-GCaMP3 fluorescence, calcium released through BI-1; format: cell-based; details: 10 μM, compared with DMSO control
BAL inflammatory cells = assay: Aspergillus-infected asthmatic mouse model, BAL cells and lung histology; format: in vivo; details: asthma-inducing group; BIA 0.1 mg/kg and 0.01 mg/kg, IC87114 1 mg/kg, intratracheal
Excerpt: FIG. 80A and FIG. 80B show mice that were infected with aspergillus with or without BIA, or IC87114, fixing the tissue to 4% formalin, injecting paraffin to make blocks, and then cutting into 4 μm thick to react to buffer and performing hematoxylin-eosin staining. The observation result (A) and the observation result (B) by PAS staining are shown.
The result is quantified by counting the total number of cells of living BAL fluid, excluding dead cells stained in trypan blue.
A. fumigatus-induced allergic pulmonary inflammation To establish the model, mice were treated with 10 μg of A. fumigatus crude antigen extract (Greer Laboratories, Cat # XPM3D3A4, Lenoir, NC, USA) with fungal substance inactivated. 0.2 ml of incomplete Freund's adjuvant (Sigma-Aldrich, Cat # F5506-6X) in regular saline It was dissolved and mixed, and half of the preparation was deposited in the peritoneal cavity and the rest was delivered subcutaneously. After 2 weeks, mice received 20 μg of A. fumigatus antigen dissolved in normal saline through the intranasal route, after an intranasal attack After 4 days, 20 μg of A. Fumigatus antigen dissolved in normal saline was treated via the endotracheal route. Control mice were administered only saline at the same time point in time through the same route and treated with the same number of conidia. […]

SARS-CoV2 virus = assay: MTT cell viability of Vero E6 cells infected with SARS-CoV2; format: cell-based; details: Severe acute respiratory syndrome coronavirus 2, Vero C1008, 24 h, Vero E6, SARS-CoV2 0.1 MOI, 500 nM, 24 hours after treatment; control DMSO-S 66.52±2.28%
Protocol: Vero E6 cells, monkey kidney cell masters, were dispensed at 1×10^4 cells/well per well in 96 well plates and incubated at 37° C., 5% CO2 incubators for 24 hours. SARS-CoV2 to infect Vero E6 cells was S ARS-CoV 43326 distributed from the National Pathogen Resource Bank, and DMEM (2% FBS, 1% antibiotic-antimycotic) medium was dispensed at 100 μL/well to infect 0.1 MOI. For 1 hour The virus was removed after 1 hour of infection in a 37° C., 5% CO2 incubator.
Next, samples prepared so that BIA or analogue compounds were finally 500 nM were dispensed 100 μL/well, including the culture medium, and then treated in a 37° C., 5% CO2 incubator for 24 hours. In the same way, the group treated with 2 μM, 5 μM, or 10 μM of Remdesivir (Rem) was a positive control.
Check the condition of the cells, add 100 μL/well of 0.5 mg/ml MTT solution, react in a 37° C., 5% CO2 incubator for 4 hours, wash out the media, and DMSO to the cells by 100 μL/well After sufficient dissolution, absorbance was measured at 540 nm with a plate reader to evaluate cell viability.
To confirm the possibility of viral prevention and therapeutic effects of BIA and its analogue compounds, 500 nM treatment of BIA analogue at the same time as viral infection, and then MTT assay whether the viability of cells against viral infection is improved after 24 hours. The results confirmed are shown in the graph of FIG. 82.

[3] = system: AKT serine phosphorylation (S473); assay: AKT phosphorylation by Western blotting; format: cell-based; details: BIA analogues, 10 μM
Protocol: This is AKT signaling key to cancer cell growth, and BIA and its analogues tend to inhibit it. Only representative experimental results were presented. Data were expressed as mean±SD. After one-way ANOVA, Tukey's post hoc test is conducted.
After cell recovery, cell lytic buffer (10 mM Tris-Cl (pH 7.4), 5 mM EDTA, 130 mM NaCl, 1% Triton X-100) and protease inhibitor mix protease inhibitor cocktail (protease inhibitor cocktail and phosphatase inhibitor cocktail) were added and left at 4° C. for 30 minutes. After breaking the cells with ultrasound, they were centrifuged at 13,000× g at 4° C. for 30 minutes, and then the supernatant was taken, and the concentration was quantified using a protein quantification kit (Bio-Rad Laboratories, Hercules, CA, USA). 20 ug of the obtained protein was electrophoresis with polyacrylamide gel electrophoresis (SDS-PAGE) followed by electrotransfer to PVDF membrane (Bio-Rad). The membrane was blocked at room temperature for 1 hour with a TBS-T solution (20 mM Tris (pH 7.5), 137 mM NaCl, 0.05% Triton X-100) containing 5% skim milk. Then, after switching to a solution containing the primary antibody, it was reacted at 4° C. The membrane after the reaction was washed three times with TBS-T solution, reacted with a secondary antibody, and then luminesced using an ECL kit and autoradiography. […]

Row | SMILES | viability at 5 µM [1] | viability at 10 µM [1] | viability at 10 µM [2] | viability at 20 µM [2] | viability [2] | inhibition of calcium release through BI-1 (TMBIM6-GCaMP3 fluorescence) (BI-1 (TMBIM6)) | all BAL inflammatory cells (BAL inflammatory cells) | viability at 0.5 µM (SARS-CoV2 virus) | AKT serine phosphorylation [3]
1 | COc1cc(N)c(C(=O)/C=C/c2cccc([N+](=O)[O-])c2)cc1OC [GM-90254, (E)-1-(2-amino-4,5-dimethoxyphenyl)-3-(3-nitrophenyl)prop-2-en-1-one] | 14.7% | 8.59% | 61.1% | 31.5% | 8.51% | stronger inhibitory effect | – | – | –
2 | Nc1ccc(F)cc1C(=O)/C=C/c1cccc([N+](=O)[O-])c1 [GM-90298, (E)-1-(2-amino-5-fluorophenyl)-3-(3-nitrophenyl)prop-2-en-1-one] | 21.2% | 19% | 68.9% | 62.3% | 48.7% | stronger inhibitory effect | – | – | –
3 | N/C(=N\O)c1cccc(/C=C/C(=O)c2ccccc2N)c1 [GM-90338, (Z)-3-((E)-3-(2-aminophenyl)-3-oxoprop-1-en-1-yl)-N′-hydroxy Benzimidamide] | 44.7% | 10.5% | 42.8% | 31.9% | 11.1% | stronger inhibitory effect | – | – | –
4 | CCOc1cccc(/C=C/C(=O)c2ccccc2N)c1 [GM-90295, (E)-1-(2-aminophenyl)-3-(3-ethoxyphenyl)prop-2-en-1-one] | 103% | 82.4% | 91.7% | 86.7% | 84.7% | stronger inhibitory effect | – | – | –
5 | Nc1ccccc1C(=O)/C=C/c1cccc(F)c1 [GM-90318, (E)-1-(2-aminophenyl)-3-(3-fluorophenyl)prop-2-en-1-one] | 21.4% | 11.8% | – | – | – | stronger inhibitory effect | – | – | –
6 | Cc1ccccc1-n1c(Cn2cnc3c(N)ncnc32)nc2cccc(C)c2c1=O [IC87114, reference compound] | – | – | – | – | – | – | inhibited | – | –
7 | Nc1ccccc1C(=O)/C=C/c1cccc([N+](=O)[O-])c1 [GM-90129, (E)-1-(2-aminophenyl)-3-(3-nitrophenyl)prop-2-en-1-one] | – | – | 91.4% | 90.2% | 61.4% | – | – | 77.7 ± 3.6% | –
8 | Nc1ccccc1C(=O)/C=C/c1ccncc1 [GM-90228, (E)-1-(2-aminophenyl)-3-(pyridin-4-yl)prop-2-en-1-one] | 30.4% | 22.8% | 54.1% | 37.8% | 15.1% | – | – | 74.3 ± 3.43% | –
9 | Nc1ccccc1C(=O)/C=C/c1cccc(C(=O)O)c1 [GM-90296, (E)-3-(3-(2-aminophenyl)-3-oxoprop-1-en-1-yl)benzoic acid] | 107% | 91.6% | 91% | 82.3% | 76.9% | stronger inhibitory effect | – | – | –
10 | COc1cccc(/C=C/C(=O)c2ccccc2N)c1 [GM-90131, (E)-1-(2-aminophenyl)-3-(3-methoxyphenyl)prop-2-en-1-one] | 101% | 37.4% | 81.5% | 74% | 33.2% | – | – | – | –
11 | CC(C)(C)OC(=O)Nc1cccc(/C=C/C(=O)c2ccccc2N)c1 [GM-90299, tert-butyl (E)-(3-(3-(2-aminophenyl)-3-oxoprop-1-en-1-yl)phenyl) carbamate] | 93.2% | 20.1% | 82.2% | 59% | 17.2% | stronger inhibitory effect | – | – | –
12 | O=C(/C=C/c1cccc([N+](=O)[O-])c1)c1ccccc1 [GM-90128, (E)-3-(3-nitrophenyl)-1-phenylprop-2-en-1-one] | 102% | 57.8% | 81% | 72.2% | 62.2% | – | – | – | inhibited
